Measured values as given in ChEMBL document CHEMBL1201862, “PubChem BioAssay data set” (2004).
Structures can show the parent of a compound that is named as a salt. The source made the active and inactive calls.

Key:
fMet-Leu-Phe receptor = target: T1, fMet-Leu-Phe receptor (Homo sapiens, UniProt P21462); test: FPR ligands, dose response (AID 519); format: functional
T1 sequence (P21462 whole entry): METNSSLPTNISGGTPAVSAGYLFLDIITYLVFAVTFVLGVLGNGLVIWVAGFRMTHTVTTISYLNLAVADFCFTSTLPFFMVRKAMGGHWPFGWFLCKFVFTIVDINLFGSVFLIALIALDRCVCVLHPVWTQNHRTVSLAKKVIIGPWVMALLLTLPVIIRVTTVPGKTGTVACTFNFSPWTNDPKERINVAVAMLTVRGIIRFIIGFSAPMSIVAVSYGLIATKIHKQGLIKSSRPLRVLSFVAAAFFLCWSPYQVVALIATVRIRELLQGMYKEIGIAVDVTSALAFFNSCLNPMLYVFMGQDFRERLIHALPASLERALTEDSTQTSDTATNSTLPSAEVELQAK

[1] = ZM109 Env clade C HIV-1 fusion inhibitors, dose response, HeLa effector, CEM target cells, luciferase, cherry-pick (AID 652058); format: functional, cell-based
[2] = system: Streptococcus sp. 'group A'; test: growth inhibition of control SK(-) GAS strain, dose response, counter-screen for streptokinase expression inhibitor project, luminescence, kanamycin, BacTiterGlo, confirmation (AID 1900); format: functional, organism-based
Streptococcus = test: Group A Streptococcus viability loss, dose response, counter-screen for streptokinase expression inhibitor project, luminescence, BacTiterGlo (AID 1915); format: functional, organism-based;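 note: potency for reduction of bacterial viability or growth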
[3] = NIH-3T3 fibroblast cytotoxicity, dose response, cytotoxicity control, cell-based, fluorescence, Alamar Blue, secondary assay (AID 2327); format: functional;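 note: NIH-3T3 mouse fibroblasts cultured with fluconazole at 8 µg/mL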
[4] = C. albicans growth with fluconazole, confirmation, fluorescence, retest (AID 2467); format: functional, cell-based
[5] = inhibitors of clade B AD8 Env fusion, dose response, cell-based, cherry-pick (AID 652062); format: functional;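 note: luciferase signal from cell-cell fusion driven by HIV-1 clade B AD8 Env; potency is for inhibitors of fusion seen as a drop in luminescence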
[6] = inhibitors of HIV Env-driven cell fusion, dose response, cherry-pick (AID 652057); format: functional, cell-based
[7] = CEM21 lymphoblast cell cytotoxicity, dose response, cytotoxicity control for viral fusion inhibitor project, CellTiter-Glo luminescence, cherry-picked (AID 652042); format: functional, cell-based;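 note: potency for signal decrease meaning cytotoxicity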
[8] = target: T2, Heat shock factor protein 1 (Mus musculus, UniProt P38532); test: inhibition of MG132-induced HSE-luciferase signal, confirmation, cell-based, NIH3T3, luminescence, dose retest (AID 2382); format: functional;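 note: NIH3T3 fibroblasts with HSF1-driven luciferase reporter stressed by proteasome inhibitor MG132; luminescence from HSF1-driven luciferase expression after 8 hours of MG132 stress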
T2 sequence (P38532 whole entry): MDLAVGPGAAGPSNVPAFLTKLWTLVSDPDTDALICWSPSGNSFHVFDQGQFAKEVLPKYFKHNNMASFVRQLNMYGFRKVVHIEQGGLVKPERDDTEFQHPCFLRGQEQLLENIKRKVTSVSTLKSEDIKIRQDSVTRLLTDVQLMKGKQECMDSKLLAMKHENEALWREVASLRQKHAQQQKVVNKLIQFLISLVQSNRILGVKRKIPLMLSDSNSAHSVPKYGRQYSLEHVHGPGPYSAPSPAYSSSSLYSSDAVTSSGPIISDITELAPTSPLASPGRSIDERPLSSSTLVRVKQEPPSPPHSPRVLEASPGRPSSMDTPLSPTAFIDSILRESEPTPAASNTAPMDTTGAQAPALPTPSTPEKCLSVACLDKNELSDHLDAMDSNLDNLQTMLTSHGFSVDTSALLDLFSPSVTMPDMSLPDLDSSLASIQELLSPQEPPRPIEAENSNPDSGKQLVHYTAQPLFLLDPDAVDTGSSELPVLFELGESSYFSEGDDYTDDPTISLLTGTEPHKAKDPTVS

[9] = target: SWI/SNF-related matrix-associated actin-dependent regulator of chromatin subfamily A member 2 (Homo sapiens, UniProt P51531); test: Luminescence-based cell-based high throughput dose response assay to identify activators of the function of SWI/SNF related, matrix associated, actin dependent regulator of chromatin, subfamily a, member 2 (SMARCA2, BRM).; format: functional
INS1 = test: beta cell apoptosis inhibitors, cytokine rescue, dose response, luminescence, retest (AID 449756); format: functional, cell-based; conditions: Rattus norvegicus;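 note: cell death triggered by IL-1 beta plus TNF-alpha plus IFN-gamma mixture; protective hits raise ATP signal compared with cytokine alone wells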
[10] = Counterscreen for activators of the function of SWI/SNF related, matrix associated, actin dependent regulator of chromatin, subfamily a, member 2 (SMARCA2, BRM): Luminescence-based cell-based high throughput dose response assay to identify non-selective compounds using the VP16 reporter assay.; format: functional
Major prion protein = Major prion protein (Homo sapiens, UniProt P04156); format: functional, cell-based
Paired box protein Pax-8 = Paired box protein Pax-8 (Homo sapiens, UniProt Q06710); test: inhibitors of PAX8-driven TPO luciferase reporter, dose response, RMG-I cells, cherry-pick (AID 687027); format: functional, cell-based;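 note: luciferase reporter driven by Pax8 target thyroperoxidase promoter measured by SteadyGlo luminescence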
[11] = off-target signal loss in HeLa-CEM21 co-culture – HeLa F-luc CTL cells, cherry-picked, counter-screen for HIV-1 Env fusion inhibitor project, dose response (AID 652040); format: functional, cell-based;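 note: potency for signal decrease marking cytotoxic or nonspecific inhibition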
[12] = cytotoxicity in OVCAR8 ovarian cancer cells, dose response, PAX8 project, cell-based, plate reader, dry powder samples (AID 743197); format: functional; conditions: OVCAR-8
[13] = LGR2 antagonists, dose response, cell-based, HEK293, CRE-luciferase reporter, cherry pick, set 2 (AID 743343); format: functional;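 note: transfected cells were stimulated with diluted bursicon conditioned medium after compound addition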
[14] = A549 cell cytotoxicity, dose response, cytotoxicity control, plate reader, cherry-pick, antagonist series (AID 743412); format: functional, cell-based
[15] = HepG2 cell cytotoxicity, dose response, cytotoxicity control, plate reader, cherry-pick, antagonist series (AID 743416); format: functional, cell-based
[16] = MC4R antagonists, dose response, counter-screen for LGR2 antagonist project, cell-based, plate reader, cherry pick (AID 743444); format: functional;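 note: transfected HEK 293 cells stimulated with alpha-MSH peptide; potency of inhibitors of the alpha-MSH evoked signal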
[17] = HEK293 cell cytotoxicity, dose response, cytotoxicity control, plate reader, cherry-picked samples (AID 743446); format: functional, cell-based
[18] = T. cruzi growth inhibition in host cells, dose response, cell-based, plate reader, dry powder, set 2 (AID 652275); format: functional
Vero = test: Vero cell toxicity, dose response, cytotoxicity control, plate reader, cherry-pick samples (AID 687020); format: functional, cell-based; conditions: Chlorocebus sabaeus
[19] = cytotoxicity toward Colo320 cells – cell-based, CellTiter-Glo luminescence, IC50, dose response (AID 1117334); format: functional; conditions: COLO 320
[20] = cytotoxicity toward HT-29 cells – cell-based, CellTiter-Glo luminescence, IC50, dose response (AID 1117330); format: functional
[21] = Concentration-dependent survival of SW480 colon cancer line, luminescence detection with CellTiter-Glo, half-maximal inhibitory concentration (AID 1117338); format: functional
[22] = RKO cell viability reduction, dose response, CellTiter-Glo luminescence (AID 1117322); format: functional
[23] = SNU-C1 cell viability reduction, dose response, CellTiter-Glo luminescence (AID 1117323); format: functional, cell-based
[24] = cytotoxicity toward HCT116 cells – cell-based, CellTiter-Glo luminescence, IC50, dose response (AID 1117332); format: functional; conditions: HCT-116
[25] = CellTiter-Glo luminescent dose response of DLD-1 viability loss (AID 1117352); format: functional

COc1ccc(C(=O)C2=C(O)C(=O)N(Cc3ccco3)C2c2ccc(OC)cc2OC)cc1 (stereo unspecified)
Ki (fMet-Leu-Phe receptor): > 66.7 µM (inactive)

CC1CCCCN1S(=O)(=O)c1ccc(C(=O)Nc2nnc(-c3cccs3)o2)cc1 (stereo unspecified)
AC50 [1]: 14.6 µM (active) | EC50 [2]: 2.05 µM (active) | EC50 (Streptococcus): 4.49 µM (active) | EC50 [3]: > 150 µM (inactive) | EC50 [4]: 1.11 µM (active) | AC50 [5]: 16.6 µM (active) | AC50 [6]: 32.8 µM (active) | AC50 [7]: 35.7 µM (active)

O=C(Oc1c(CN2CCOCC2)cc(Cl)c2cccnc12)c1ccccc1Br
EC50 [8]: 31.3 µM (active) | EC50 [3]: 135 µM (active) | EC50 [4]: 3.49 µM (active) | EC50 [9]: > 91.1 µM (inactive) | AC50 (INS1): 6.56 µM (active) | EC50 [10]: > 91.1 µM (inactive)

N=C(NOC(=O)COc1ccc2ccccc2c1Br)c1ccccn1
IC50 (Major prion protein): 4.71 µM (active) | IC50 (cells): > 138 µM (inactive)

Nc1ncnc2c(C3OC(CO)C(O)C3O)scc12 (stereo unspecified)
AC50 [1]: 2.04 µM (active) | AC50 (Paired box protein Pax-8): < 0.26 µM (active) | AC50 [5]: 3.45 µM (active) | AC50 [6]: 0.322 µM (active) | AC50 [7]: < 0.26 µM (active) | AC50 [11]: 3.78 µM (active)

O=C(C[C@@H]1CC[C@H]2[C@@H](COC[C@@H](O)CN2Cc2cccc(C(F)(F)F)c2)O1)NCc1ccc(F)cc1
AC50 (Paired box protein Pax-8): 27.9 µM (active) | AC50 [12]: 51.7 µM (active)

O=C1c2ccccc2S(=O)(=O)c2cc(N3CCN(C(=O)c4ccccc4)CC3)ccc21
AC50 [13]: 20.8 µM (active) | AC50 [14]: 23.5 µM (active) | AC50 [15]: > 52 µM (inactive) | AC50 [16]: 22.3 µM (active) | AC50 [17]: > 52 µM (inactive)

CC(C)N1C[C@@H](CN(C)Cc2ccc(Cl)cc2)Oc2c(NC(=O)c3ccncn3)cccc2C1=O
AC50 [18]: 0.00548 µM (active)

CN(C)C(=O)c1cccc(-c2ccc([C@@H]3[C@@H](CO)N4CCCCN(C(=O)C5CCC5)C[C@H]34)cc2)c1
AC50 [18]: 14.4 µM (active)

CCc1c(C)[nH]c2c(C#N)c(C)nn2c1=O
Ki (fMet-Leu-Phe receptor): 21.7 µM (inactive)

O=C(O)c1cc(=O)c2c(OCC(O)COc3cccc4oc(C(=O)O)cc(=O)c34)cccc2o1 [CROMOLYN SODIUM]
AC50 (Vero): 34.3 µM (active)

CCN(CCO)CCCC(C)Nc1ccnc2cc(Cl)ccc12 (stereo unspecified) [HYDROXYCHLOROQUINE SULFATE]
IC50 [19]: > 20 µM (inactive) | IC50 [20]: > 20 µM (inactive) | IC50 [21]: > 20 µM (inactive) | IC50 [22]: > 20 µM (inactive) | IC50 [23]: > 20 µM (inactive) | IC50 [24]: > 20 µM (inactive) | IC50 [25]: > 20 µM (inactive)
